Patent publication US9790228B2, “Heterocyclic kinase inhibitors” (Intellikine LLC, priority 2008, dated 2017)

Experiments:
p110α/p85α = p110α/p85α (Homo sapiens (Human), UniProt P42336); test: PI3K α inhibition assay (TLC lipid kinase or HTRF); format: biochemical
In short: (§1)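 IC50 from TLC lipid kinase assay (25 mM HEPES pH 7.4, 10 mM MgCl2, 100 μg/ml phosphatidylinositol, 10 or 100 μM γ-32P-ATP, 5 min RT, phosphorimager) at 10–12 two-fold dilutions, or HTRF (10 μM PIP2, 10 μM ATP, 1 h RT) measuring PIP3 by TR-FRET; 2% DMSO final.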

p110γ = p110γ (Homo sapiens (Human), UniProt P48736); test: PI3K γ inhibition assay (TLC lipid kinase or HTRF); format: biochemical
In short: as §1

p110δ/p85α = p110δ/p85α (Homo sapiens (Human), UniProt O00329); test: PI3K δ inhibition assay (TLC lipid kinase or HTRF); format: biochemical
In short: as §1

Balb/c splenic B cells = test: B cell activation and proliferation assay (Alamar Blue); format: cell-based, mouse; conditions: Mus musculus, B-cell
In short: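 Purified Balb/c splenic B cells, 50,000/well, pretreated with compound 30 min (0.2% DMSO), then stimulated with 10 ug/ml LPS or 5 ug/ml anti-IgM F(ab′)2 plus 2 ng/ml IL4 (cocktail concentrations) for 72 h at 37 °C. Alamar Blue 5 h, fluorescence 560/590 nm; IC50/EC50 calculated.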

p110β/p85α = p110β/p85α (Homo sapiens, UniProt P42338); test: PI3K β inhibition assay (TLC lipid kinase or HTRF); format: biochemical; conditions: read-out: PI3K β IC50
In short: as §1

p110α/p85α, sequence (P42336 whole entry): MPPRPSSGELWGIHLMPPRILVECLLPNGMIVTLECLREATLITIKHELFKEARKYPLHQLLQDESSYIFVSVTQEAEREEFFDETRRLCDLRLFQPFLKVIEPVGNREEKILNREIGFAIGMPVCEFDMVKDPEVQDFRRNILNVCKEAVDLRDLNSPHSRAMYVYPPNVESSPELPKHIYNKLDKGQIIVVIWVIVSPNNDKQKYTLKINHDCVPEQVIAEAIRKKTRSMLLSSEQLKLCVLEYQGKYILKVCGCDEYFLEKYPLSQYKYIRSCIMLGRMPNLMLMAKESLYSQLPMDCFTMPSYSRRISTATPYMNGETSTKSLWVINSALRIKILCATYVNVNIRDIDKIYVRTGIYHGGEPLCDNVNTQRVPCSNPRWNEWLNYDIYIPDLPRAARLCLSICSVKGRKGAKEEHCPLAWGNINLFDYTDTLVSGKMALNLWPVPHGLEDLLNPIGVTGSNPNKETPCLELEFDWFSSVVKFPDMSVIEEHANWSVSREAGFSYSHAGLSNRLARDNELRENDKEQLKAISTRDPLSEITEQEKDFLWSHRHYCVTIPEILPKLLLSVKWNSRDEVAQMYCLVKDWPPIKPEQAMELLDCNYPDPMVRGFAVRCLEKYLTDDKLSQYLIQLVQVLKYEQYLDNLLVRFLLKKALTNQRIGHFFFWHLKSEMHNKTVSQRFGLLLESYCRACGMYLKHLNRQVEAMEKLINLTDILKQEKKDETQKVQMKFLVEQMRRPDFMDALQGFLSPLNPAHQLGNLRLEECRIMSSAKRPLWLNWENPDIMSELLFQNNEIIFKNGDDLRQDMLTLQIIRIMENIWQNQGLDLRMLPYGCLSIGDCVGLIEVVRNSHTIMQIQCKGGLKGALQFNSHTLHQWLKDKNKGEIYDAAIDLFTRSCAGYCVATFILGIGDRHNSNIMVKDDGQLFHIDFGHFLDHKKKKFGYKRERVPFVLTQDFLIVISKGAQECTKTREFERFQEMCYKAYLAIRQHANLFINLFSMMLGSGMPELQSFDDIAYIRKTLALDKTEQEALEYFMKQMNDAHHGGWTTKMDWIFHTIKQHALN
p110α/p85α, sequence (P27986 whole entry partner): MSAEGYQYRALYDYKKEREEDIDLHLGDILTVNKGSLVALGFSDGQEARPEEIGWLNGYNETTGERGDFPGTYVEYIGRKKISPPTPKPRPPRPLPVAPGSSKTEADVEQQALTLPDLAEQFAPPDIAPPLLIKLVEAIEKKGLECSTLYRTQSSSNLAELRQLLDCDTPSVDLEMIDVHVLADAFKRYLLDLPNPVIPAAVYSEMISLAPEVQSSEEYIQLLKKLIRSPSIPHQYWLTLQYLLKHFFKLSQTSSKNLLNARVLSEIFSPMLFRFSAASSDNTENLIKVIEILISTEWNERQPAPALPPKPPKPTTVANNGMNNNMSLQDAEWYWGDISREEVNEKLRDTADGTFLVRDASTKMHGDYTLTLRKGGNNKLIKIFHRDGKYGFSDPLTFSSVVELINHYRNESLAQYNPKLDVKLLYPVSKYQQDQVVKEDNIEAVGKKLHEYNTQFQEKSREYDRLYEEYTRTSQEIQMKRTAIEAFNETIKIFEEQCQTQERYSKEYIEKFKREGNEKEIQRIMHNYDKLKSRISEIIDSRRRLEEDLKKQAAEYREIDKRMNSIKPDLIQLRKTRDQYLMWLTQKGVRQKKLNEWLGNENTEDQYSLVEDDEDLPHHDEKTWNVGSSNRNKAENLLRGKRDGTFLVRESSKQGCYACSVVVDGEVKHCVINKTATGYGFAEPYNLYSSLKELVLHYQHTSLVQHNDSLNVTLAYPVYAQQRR
p110β/p85α, sequence (P42338 whole entry, looked up): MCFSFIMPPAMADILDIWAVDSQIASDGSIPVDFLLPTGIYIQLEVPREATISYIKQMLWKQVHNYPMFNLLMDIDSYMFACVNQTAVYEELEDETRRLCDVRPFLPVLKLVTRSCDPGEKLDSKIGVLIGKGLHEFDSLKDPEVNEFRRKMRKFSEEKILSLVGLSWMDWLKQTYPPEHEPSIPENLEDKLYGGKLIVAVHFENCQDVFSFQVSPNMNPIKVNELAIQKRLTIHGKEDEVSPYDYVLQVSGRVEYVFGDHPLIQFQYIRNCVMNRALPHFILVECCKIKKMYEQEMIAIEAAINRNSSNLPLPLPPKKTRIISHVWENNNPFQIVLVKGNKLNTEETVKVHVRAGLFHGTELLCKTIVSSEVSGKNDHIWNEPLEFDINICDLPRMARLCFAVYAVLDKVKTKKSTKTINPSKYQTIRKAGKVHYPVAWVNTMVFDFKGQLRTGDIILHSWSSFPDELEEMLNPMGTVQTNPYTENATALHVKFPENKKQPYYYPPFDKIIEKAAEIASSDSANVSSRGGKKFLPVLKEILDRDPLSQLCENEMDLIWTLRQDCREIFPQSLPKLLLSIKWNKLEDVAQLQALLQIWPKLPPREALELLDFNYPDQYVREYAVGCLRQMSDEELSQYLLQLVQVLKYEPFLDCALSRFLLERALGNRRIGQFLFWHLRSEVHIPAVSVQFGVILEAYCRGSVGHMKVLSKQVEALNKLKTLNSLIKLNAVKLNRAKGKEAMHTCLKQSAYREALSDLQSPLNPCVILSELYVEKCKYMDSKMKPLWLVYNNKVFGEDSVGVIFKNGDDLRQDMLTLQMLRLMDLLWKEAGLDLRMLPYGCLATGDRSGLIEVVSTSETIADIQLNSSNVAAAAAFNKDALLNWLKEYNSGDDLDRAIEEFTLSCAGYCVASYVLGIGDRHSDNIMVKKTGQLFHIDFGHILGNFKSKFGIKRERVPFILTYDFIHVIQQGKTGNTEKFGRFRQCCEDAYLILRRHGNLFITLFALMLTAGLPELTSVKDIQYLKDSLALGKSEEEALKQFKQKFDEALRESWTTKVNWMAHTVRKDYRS
p110δ/p85α, sequence (O00329 whole entry): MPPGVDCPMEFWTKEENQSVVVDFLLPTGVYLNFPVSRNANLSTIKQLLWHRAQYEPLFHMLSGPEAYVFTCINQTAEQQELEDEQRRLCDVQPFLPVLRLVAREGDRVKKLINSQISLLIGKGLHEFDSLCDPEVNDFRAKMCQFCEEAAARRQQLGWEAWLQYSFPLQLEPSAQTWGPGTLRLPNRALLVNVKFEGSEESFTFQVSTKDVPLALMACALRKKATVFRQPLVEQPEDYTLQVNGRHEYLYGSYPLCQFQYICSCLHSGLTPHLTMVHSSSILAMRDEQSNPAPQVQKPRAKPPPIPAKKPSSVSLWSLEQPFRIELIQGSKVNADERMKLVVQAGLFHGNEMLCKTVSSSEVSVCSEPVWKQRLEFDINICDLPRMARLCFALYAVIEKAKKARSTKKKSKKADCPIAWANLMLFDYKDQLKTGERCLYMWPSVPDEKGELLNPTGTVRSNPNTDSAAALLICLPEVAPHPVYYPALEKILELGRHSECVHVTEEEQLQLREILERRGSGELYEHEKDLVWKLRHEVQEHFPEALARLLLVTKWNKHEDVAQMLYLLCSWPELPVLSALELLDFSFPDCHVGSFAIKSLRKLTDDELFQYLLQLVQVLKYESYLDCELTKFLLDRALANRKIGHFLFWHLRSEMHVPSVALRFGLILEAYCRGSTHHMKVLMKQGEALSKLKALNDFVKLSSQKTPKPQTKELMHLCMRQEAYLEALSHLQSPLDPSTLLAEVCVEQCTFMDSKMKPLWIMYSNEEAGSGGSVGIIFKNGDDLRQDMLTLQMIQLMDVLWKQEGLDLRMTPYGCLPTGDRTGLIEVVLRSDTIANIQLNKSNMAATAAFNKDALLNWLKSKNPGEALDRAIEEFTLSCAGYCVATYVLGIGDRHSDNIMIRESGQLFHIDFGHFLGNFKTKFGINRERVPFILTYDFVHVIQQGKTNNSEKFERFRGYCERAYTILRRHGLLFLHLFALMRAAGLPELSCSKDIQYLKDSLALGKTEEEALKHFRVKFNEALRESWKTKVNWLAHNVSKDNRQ
p110δ/p85α, sequence (P27986 whole entry partner): as the sequence (P27986 whole entry partner) above
p110γ, sequence (P48736 whole entry): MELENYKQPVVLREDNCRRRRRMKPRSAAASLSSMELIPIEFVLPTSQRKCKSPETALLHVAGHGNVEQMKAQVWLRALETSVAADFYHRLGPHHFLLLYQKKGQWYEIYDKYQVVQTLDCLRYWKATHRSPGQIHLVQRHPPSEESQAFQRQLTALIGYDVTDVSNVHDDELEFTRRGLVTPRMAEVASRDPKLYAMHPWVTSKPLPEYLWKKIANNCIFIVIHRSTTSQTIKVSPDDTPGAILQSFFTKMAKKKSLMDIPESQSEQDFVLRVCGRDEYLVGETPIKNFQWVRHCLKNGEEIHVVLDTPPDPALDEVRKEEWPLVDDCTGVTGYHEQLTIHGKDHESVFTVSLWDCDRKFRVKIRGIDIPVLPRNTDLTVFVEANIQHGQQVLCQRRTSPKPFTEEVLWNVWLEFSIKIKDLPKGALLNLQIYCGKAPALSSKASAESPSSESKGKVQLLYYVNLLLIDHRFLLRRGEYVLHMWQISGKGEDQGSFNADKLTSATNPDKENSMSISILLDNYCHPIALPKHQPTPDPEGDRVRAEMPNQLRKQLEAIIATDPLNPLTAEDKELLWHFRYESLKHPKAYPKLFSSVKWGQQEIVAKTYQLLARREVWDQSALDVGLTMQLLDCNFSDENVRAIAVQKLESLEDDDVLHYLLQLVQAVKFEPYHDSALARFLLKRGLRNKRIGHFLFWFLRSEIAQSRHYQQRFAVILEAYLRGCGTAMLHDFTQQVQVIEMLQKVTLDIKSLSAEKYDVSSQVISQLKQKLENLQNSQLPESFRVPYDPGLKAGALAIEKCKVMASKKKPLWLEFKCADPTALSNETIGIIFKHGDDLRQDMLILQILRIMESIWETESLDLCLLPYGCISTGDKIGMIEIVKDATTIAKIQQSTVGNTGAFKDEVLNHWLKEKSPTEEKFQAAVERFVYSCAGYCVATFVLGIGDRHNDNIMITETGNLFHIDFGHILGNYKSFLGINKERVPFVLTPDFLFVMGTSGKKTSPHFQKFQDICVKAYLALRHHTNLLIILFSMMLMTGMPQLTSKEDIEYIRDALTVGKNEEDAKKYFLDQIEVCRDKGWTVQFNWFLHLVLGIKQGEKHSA

SMILES	IC50 (p110α/p85α)	IC50 (p110γ)	IC50 (p110δ/p85α)	IC50 (p110β/p85α)	EC50 (Balb/c splenic B cells)
CN1CCN(c2nc3ccccc3cc2Cn2nc(-c3ccc4cc(N)sc4c3)c3c(N)ccnc32)CC1 [Compound 80]	< 100 nM	< 100 nM	< 100 nM	< 100 nM	< 100 nM
Nc1ncnc2c1c(-c1ccc3cn[nH]c3c1)nn2CC1=Cc2ccccc2NC1N1CCCC1 (centres unmarked) [Compound 81]	> 1000 nM	> 1000 nM	< 100 nM	> 1000 nM	100 to 1000 nM
CC(Nc1ncnc2[nH]cnc12)c1cc2ccccc2nc1N1CCN(C)CC1 (centres unmarked) [Compound 82]	> 1000 nM	> 1000 nM	< 100 nM	> 1000 nM	< 100 nM
CC(=O)Nc1nc2ccc(-c3nn(Cc4cc5ccccc5nc4-c4ccccc4F)c4ncnc(N)c34)cc2s1 [Compound 83]	> 1000 nM	< 100 nM	< 100 nM	> 1000 nM	< 100 nM
CC(=O)Nc1nc2ccc(-c3nn(Cc4cc5ccccc5nc4-c4ccccc4C)c4ncnc(N)c34)cc2s1 [Compound 84]	> 1000 nM	< 100 nM	< 100 nM	> 1000 nM	< 100 nM
Nc1nc2ccc(-c3nn(Cc4cc5ccccc5nc4-c4ccccc4F)c4ncnc(N)c34)cc2s1 [Compound 85]	100 to 1000 nM	< 100 nM	< 100 nM	> 1000 nM	< 100 nM
Cc1ccccc1-c1nc2ccccc2cc1Cn1nc(-c2ccc3cc(N)sc3c2)c2c(N)ncnc21 [Compound 86]	> 1000 nM	< 100 nM	< 100 nM	> 1000 nM	100 to 1000 nM
CC(=O)Nc1nc2ccc(-c3nn(Cc4cc5ccccc5nc4-c4ccccc4)c4ncnc(N)c34)cc2s1 [Compound 92]	> 1000 nM	< 100 nM	< 100 nM	> 1000 nM	< 100 nM
Nc1nc2ccc(-c3nn(Cc4cc5ccccc5nc4-c4ccccc4)c4ncnc(N)c34)cc2s1 [Compound 94]	> 1000 nM	< 100 nM	< 100 nM	> 1000 nM	100 to 1000 nM

The next lines start with results.

IC50 (p110α/p85α)	IC50 (p110γ)	IC50 (p110δ/p85α)	IC50 (p110β/p85α)	SMILES	EC50 (Balb/c splenic B cells)
> 1000 nM	> 1000 nM	100 to 1000 nM	> 1000 nM	Nc1ncnc2c1c(-c1cc(O)cc(F)c1)nn2Cc1cc2c(nc1-c1ccccc1F)CCC2 [Compound 101]	100 to 1000 nM
> 1000 nM	100 to 1000 nM	< 100 nM	> 1000 nM	Nc1ncnc2c1c(-c1cc(O)cc(F)c1)nn2Cc1nc2ccccc2nc1N1CCCC1 [Compound 104]	< 100 nM
> 1000 nM	100 to 1000 nM	< 100 nM	> 1000 nM	Nc1ncnc2c1c(-c1cccc(O)c1)nn2Cc1nc2ccccc2nc1N1CCCC1 [Compound 105]	100 to 1000 nM
> 1000 nM	> 1000 nM	< 100 nM	> 1000 nM	Cc1ccccc1-c1nc2ccccc2nc1Cn1nc(-c2cc(O)cc(F)c2)c2c(N)ncnc21 [Compound 107]	< 100 nM
< 100 nM	< 100 nM	< 100 nM	100 to 1000 nM	Nc1nc2ccc(-c3nn(Cc4cc5ccccc5nc4N4CCOCC4)c4ncnc(N)c34)cc2s1 [Compound 129]	< 100 nM
< 100 nM	< 100 nM	< 100 nM	< 100 nM	CC(=O)Nc1nc2ccc(-c3nn(Cc4cc5ccccc5nc4N(C)C)c4ncnc(N)c34)cc2s1 [Compound 130]	< 100 nM
100 to 1000 nM	< 100 nM	< 100 nM	> 1000 nM	Cc1ccccc1-c1nc2ccccc2cc1Cn1nc(-c2ccc3nc(N)ccc3c2)c2c(N)ncnc21 [Compound 131]	100 to 1000 nM
< 100 nM	< 100 nM	< 100 nM	100 to 1000 nM	Cc1ccccc1-c1nc2ccccc2cc1Cn1nc(-c2ccc3nc(N)ncc3c2)c2c(N)ncnc21 [Compound 132]	< 100 nM
> 1000 nM	< 100 nM	< 100 nM	> 1000 nM	Cc1ccccc1-c1nc2ccccc2cc1Cn1nc(-c2ccc3oc(N)nc3c2)c2c(N)ncnc21 [Compound 133]	100 to 1000 nM
> 1000 nM	< 100 nM	< 100 nM	> 1000 nM	Cc1ccccc1-c1nc2ccccc2cc1Cn1nc(-c2ccc3ncnc(N)c3c2)c2c(N)ncnc21 [Compound 134]	100 to 1000 nM
